“And” between values parts separate entries of the source, which are not always exact repeats. Equal entries are not always repeated.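 How tested: cells in 96-well plates exposed to compound for 48 hours at five concentrations. The concentration for 50% growth inhibition is given as GI50. The concentration for full growth arrest is given as TGI.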
Tests used:
Test in all cases: inhibition of tumour cell growth, NCI panel, 48 h
[1] = system: A498 renal
[2] = system: BT-549 breast
[3] = system: HCT-15 colon
[4] = system: IGROV1 ovarian
[5] = system: K-562 leukemia
[6] = system: NCI-H23 lung
[7] = system: PC-3 prostate
[8] = system: SF-268 CNS
[9] = system: SW-620 colon
[10] = system: UACC-257 melanoma

| Structure (SMILES) | TGI [1] [µM] | TGI [2] | TGI [3] [µM] | TGI [4] | TGI [5] [µM] | TGI [6] | TGI [7] [µM] | TGI [8] [µM] | TGI [9] [µM] | TGI [10] [µM] | GI50 [2] | GI50 [4] | GI50 [6] | GI50 [7] | GI50 [8] [µM] |
| --- | --- | --- | --- | --- | --- | --- | --- | --- | --- | --- | --- | --- | --- | --- | --- |
| CCOP(=O)(OCC)C(F)(F)c1ccc(CC(NC(=O)OC(C)(C)C)C(=O)O)cc1 (stereo not given) | > 10 | > 10 µM | > 10 | > 10 µM | > 10 | > 10 µM | > 10 | > 10 | > 10 | > 10 |  |  |  |  |  |
| Cc1ccc(-c2cc(-c3ccco3)c(C#N)c(=S)n2C2OC(CO)C(O)C(O)C2O)cc1 (stereo not given) | > 100 | 78.5 µM and > 100 µM | > 100 | 74.5 µM and > 100 µM | > 100 | 90.4 µM and > 100 µM | > 100 | > 100 | > 100 | > 100 | 18.2 µM and 57.3 µM | 21.4 µM and 47.1 µM | 19.7 µM and 51.9 µM | 17.4 µM and > 100 µM | 44.8 |
| C/C(=C\CBr)CCC(Br)C(C)(C)Br (stereo not given) | > 100 | > 100 µM | > 100 | > 100 µM | > 100 | > 100 µM | > 100 | > 100 | > 100 | > 100 |  |  |  |  |  |
| Cc1cccc(Cn2c3c(c4cc(O)ccc42)C(=O)c2ccccc2C3=O)c1 | > 100 | > 86.7 µM | > 100 | > 71 µM | > 100 | > 100 µM | 38.4 | > 100 | > 100 | > 100 |  |  |  |  |  |
| Cn1c(=O)c2c(nc3n2CC(C(=O)O)N3)n(C)c1=O (stereo not given) | > 100 | > 100 µM | > 100 | > 100 µM | > 100 | > 100 µM | > 100 | > 100 | > 100 | > 100 |  |  |  |  |  |
| CCOC(=O)N1CCN(Cc2cc(=O)n3ccc(C)cc3n2)CC1 | > 100 | > 100 µM | > 100 | > 100 µM | > 100 | > 100 µM | > 100 | > 100 | > 100 | > 100 |  |  |  |  |  |
| C[C@]12CCC3C4=C(CCC3C1CCC2=O)C(=O)[C@H]1O[C@H]1C4=O (stereo not given in full) | 31.1 | 4.83 µM | 2.8 | 4.74 µM | 6.87 | 8.4 µM | 11.5 | 5.32 | 4.98 | 34.1 |  |  |  |  |  |
| Cc1ccc(NC(=O)c2ccc(OP(=O)(O)Nc3ccc(C)cc3)cc2)cc1 | > 100 | > 100 µM | > 100 | > 100 µM | > 100 | > 100 µM | > 100 | > 100 | > 100 | > 100 |  |  |  |  |  |
| CC1=Nc2ccccc2OC(C)=C1N=Nc1ccc2nc(C)[nH]c2c1 | 99.5 | > 100 µM | > 100 | > 100 µM | > 100 | > 100 µM | > 100 | > 100 | > 100 | > 100 |  |  |  |  |  |
| O=C(/C=C/c1ccccc1)C[C@@H](O)C[C@@H]1CC=CC(=O)O1 | 30.9 | 27.7 µM | 25.4 | 31.2 µM | 7 | 28.6 µM | 31.8 | 27.7 | 5.53 | 31.1 |  |  |  |  |  |
| Nc1c(-c2ccc(Cl)c(Cl)c2)c2ccc([N+](=O)[O-])cc2c(=O)n1-c1nc2ccccc2s1 | 24.3 | 21.7 µM | > 47 | > 100 µM | > 100 | 3.13 µM | > 100 | > 39.4 | > 100 | > 100 |  |  |  |  |  |
| CCCCOC(=O)Nc1ccc(S(=O)(=O)Nc2ccccc2Cl)cc1 | 27.8 | 39.2 µM | 44.9 | 49 µM | 43.1 | 77.7 µM | 58.4 | 36.5 | 31.3 | 98.4 |  |  |  |  |  |
| COP(=O)(OC)C1=c2c(C)noc2=C2C=COC2C1=O (stereo not given) | > 100 | > 100 µM | > 100 | > 100 µM | > 100 | > 100 µM | > 100 | > 100 | > 100 | > 100 |  |  |  |  |  |
| COC(=O)c1c(C)nc2c1cc(O)c1[nH]c(C)c(C)nc12 | > 100 | > 100 µM | > 100 | > 100 µM | > 100 | > 100 µM | > 100 | > 100 | > 100 | > 100 |  |  |  |  |  |
| Nn1c(Nc2ccc(S(=O)(=O)Nc3ncccn3)cc2)nnc(/C=C/c2c(O)ccc3ccccc23)c1=O | 72.4 | 60 µM | > 100 | > 100 µM | > 100 | 45.6 µM | > 100 | > 100 | > 100 | 55.2 |  |  |  |  |  |
| [N-]=[N+]=NC(c1ccccc1)(c1ccccc1)c1ccccc1 | 31.9 | 37.7 µM | 40.5 | 63.7 µM | 42.5 | 42.4 µM | 29.4 | 35.7 | 40.5 | 31.4 |  |  |  |  |  |
| Cc1cc(-c2nc3ccc(F)cc3s2)ccc1NC(=O)[C@H](C)N | 21.7 | 26.8 µM | 14.1 | 20 µM | 4.7 | 26.1 µM | 24.3 | 22.8 | 15 | 11.8 |  |  |  |  |  |
